Consider eight compounds from ChEMBL document CHEMBL1148406, “Inhibition of adenosine deaminase by novel 5:7 fused heterocycles containing the imidazo[4,5-e][1,2,4]triazepine ring system: a structure-activity relationship study” (J Med Chem, 2004).

The experiment deals with T1, Adenosine deaminase (Bos taurus, UniProt P56658).
T1 sequence (P56658 whole entry): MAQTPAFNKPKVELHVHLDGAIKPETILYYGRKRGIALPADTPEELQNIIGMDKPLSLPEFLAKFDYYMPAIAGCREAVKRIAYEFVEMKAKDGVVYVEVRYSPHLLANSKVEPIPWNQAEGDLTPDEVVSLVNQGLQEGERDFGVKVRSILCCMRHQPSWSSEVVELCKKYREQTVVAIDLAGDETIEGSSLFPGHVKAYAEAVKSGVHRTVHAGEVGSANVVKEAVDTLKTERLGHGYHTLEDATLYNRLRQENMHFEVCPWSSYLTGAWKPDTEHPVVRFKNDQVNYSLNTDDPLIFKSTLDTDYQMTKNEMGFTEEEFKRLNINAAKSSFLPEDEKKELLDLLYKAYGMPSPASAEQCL
In words: Binding affinity towards calf spleen adenosine deaminase was determined.

The term Ki denotes a dissociation constant, usually derived from enzyme kinetics or from competition with a known ligand. Read a high Ki as lower affinity.

`COCCOC1c2c(ncn2Cc2ccc(OC)cc2)N=CN(C)N1C` (stereo not drawn) returned a Ki of 23 µM.
Next, `COc1ccc(Cn2cnc3c2C(OC)N(C)N(C)C=N3)cc1` (stereo not drawn): 24 µM.
The figure for `COc1ccc(Cn2cnc3c2C(OC(C)C)N(C)N(C)C=N3)cc1` (stereo not drawn) is 30 µM; for `COc1ccc(COC2c3c(ncn3Cc3ccc(OC)cc3)N=CN(C)N2C)cc1` (stereo not drawn) it is 77 µM; for `CCCCOC1c2c(ncn2Cc2ccc(OC)cc2)N=CN(C)N1C` (stereo not drawn) it is 15 µM.
The figure for `CCCOC1c2c(ncn2Cc2ccc(OC)cc2)N=CN(C)N1C` (stereo not drawn) is 12 µM.
Regarding `CCOC1c2c(ncn2Cc2ccc(OC)cc2)N=CN(C)N1C` (stereo not drawn), the affinity, expressed as Ki, was 20 µM.
The figure for `COc1ccc(Cn2cnc3c2C(OCc2cccc(C)c2)N(C)N(C)C=N3)cc1` (stereo not drawn) is 93 µM.
